Entries after “also recorded” stand apart in the source; their conditions may differ.

Data set [1] deals with serum chemistry biomarkers of hepatotoxicity. Kind of data set: Hepatotoxicity serum biomarker study, oral dose. The data set is classed as in vivo, dogs. As to conditions: for serum biomarkers of hepatotoxicity (ALT, AST, ALP, GGT): dogs, 50 mg/kg PO; for ALT levels elevation: single PO dose of 50 mg/kg. An excerpt: […] 11A, showing measurements of alanine aminotranferease [ALT], aspartate aminotranferease [AST], alkaline phosphatase [ALP] and gamma-glutamyl transferase [GGT] in the dogs at each dose level (each bar represents a measurement from 1 dog in the study).

Data set [2] in a line: 7-day i.p. repeat dose screening toxicity study. It is filed as in vivo, rats. To be noted: 50 mg/kg/day i.p. for 7 consecutive days. The procedure: The compound of Formula (I) was evaluated in a 7-day repeat dose screening toxicity study in female rats. In order to maximize systemic exposure, rats were administered compound of Formula (I) i.p. at 50 mg/kg/day for 7 consecutive days, to obtain the results shown in FIG. 9. Clinical chemistry parameters were evaluated on Days 3 and 8. Histopathology was performed on select organs including the liver, kidney, spleen, and lung.

Data set [3] concerns TRP channels and voltage-gated ion channels. The data set can be described thus: Selectivity over the panel of eight tested channels. The data set is classed as cell-based, human. To be noted: eight channels of Table 2. The procedure:
Data for TRPA1 inhibition and the selectivity of TRPA1 inhibition was obtained by this method for the compound of Formula (I) and included in Table 1 and Table 2. All currents were recorded in whole-cell configuration using EPC-9 and EPC-10 amplifiers and Patchmaster software (HEKA). […] The standard pipette solution consisted of 140 mM CsAsp, 10 mM EGTA, 10 mM HEPES, 2.27 mM MgCl2, 1.91 mM CaCl2, 4 mM MgATP, and 0.1-0.3 mM Na2GTP, with pH adjusted to 7.2 with CsOH. In addition, a solution containing 145 mM CsCl, 10 mM HEPES, 10 mM EGTA and 1 mM MgCl2 (pH 7.2 adjusted with csOH) can be used. The standard bath solution contained 150 mM NaCl, 10 mM HEPES, 10 mM glucose, 4.5 mM KCl, 1 mM EGTA, 3 mM MgCl2, with pH adjusted to 7.4 with NaOH. In some instances, 2 mM CaCl2 was added in place of EGTA and the concentration of MgCl2 was reduced to 1 mM.

For the compound `C[C@H]1CCCN1c1ccc(-c2csc(NC(=O)Cn3cnc4c3c(=O)n(C)c(=O)n4C)n2)cc1F` [Formula (III)], the “serum biomarkers of hepatotoxicity (ALT, AST, ALP, GGT)” value in data set [1] was “did elevate serum biomarkers of hepatotoxicity”. Also, the ALT levels elevation entry in data set [1] (female beagle dogs) is listed as “up to 130 fold”; in data set [1] (male dogs), “up to 60 fold”. Further, in data set [2] (rats), the “serum biomarkers of hepatotoxicity” value is reported as “did elevate serum biomarkers of hepatotoxicity”.

`C[C@H]1CCCN1c1ncc(-c2cccc(NC(=O)Cn3cnc4c3c(=O)n(C)c(=O)n4C)n2)cn1` [Formula (I)]: the “selectivity for block of TRPA1 over all other tested channels” value in data set [3] is “at least 100 fold”. For the same compound, in data set [1], the “serum biomarkers of hepatotoxicity (ALT, AST, ALP, GGT)” value was “did not elevate serum biomarkers of hepatotoxicity or acute phase response”. Also, the “histopathology of liver, kidney, spleen, lung” value in data set [2] (female rats, days 3 and 8, 50 mg/kg/day) is listed as “No histopathological findings; also recorded: no adverse effects”.

These data come from patent US20140163048A1, “COMPOSITIONS WITH INCREASED STABILITY FOR INHIBITING TRANSIENT RECEPTOR POTENTIAL ION CHANNEL TRPA1” (Cubist Pharmaceuticals, Inc., priority 2012, published 2014).
